Results as given in article PMC9952391, “The Role of Acetyl Zingerone and Its Derivatives in Inhibiting UV-Induced, Incident, and Delayed Cyclobutane Pyrimidine Dimers” (Antioxidants, 2023).
Several values for one entry are separate records, joined by “and”; a condition that tells them apart may be missing. Identical values can stand only once.

How the values were obtained:
[1] = tested on: incident CPDs (iCPDs) in pigmented C57BL/6 melanocytes (Mel-a); experiment: iCPD assessment by DNA ELISA after ssUV, Mel-a; format: cell-based, mouse; settings: for iCPD inhibition across doses: various doses up to 1 mg/mL, 24 h, Figure 4A
Excerpt: (§1) For UV exposures, we used a “SOL-UV6 ultraviolet solar simulator” from Newport irradiators. It is equipped with a Xenon arc lamp where the output is varied using the integrated variable attenuator aperture, which provides the ability to vary the output from 10% to 100% of the maximum available solar constants. The output spectrum is flat from 320 nm to 400 nm and no values are below 300 nm. This is abbreviated as “ssUV” for “solar-simulated UV” throughout the text. Various cell types seeded at ~50% confluency, were treated with the AZ and analogs at concentrations mentioned in the data figures for 24–h. Cells at ~80–90% confluency (untreated controls), were washed twice with PBS and exposed to 18 kJ/m^2 of ssUV in minimal amount of PBS (ex. 2 mL PBS in a 60 mm cell culture dish) without any dish lid in place. […] The ssUV apparatus was monitored almost daily using UV meters for any emissions below 300 nm. The dose was decided based upon the 80–90% cell survival post UV exposure. After exposure, one time point was collected immediately to assess iCPDs, whereas more dishes were incubated in cell culture medium, inside the cell culture incubator, for various time points to be collected post UV to assess dCPDs. For dCPD induction, it is important that the cell culture incubator is not opened for at least 30 min (the first time point post UV) to avoid possible interference from the CO2/O2 ratio, which will be altered upon opening the incubator doors. Cells were collected by scraping and washed once with PBS, which was followed by DNA isolation using a Quick DNA miniprep Kit (Cat. D3024, Zymo Research, Irvine, CA, USA). CPDs were assessed using our previously established DNA ELISA protocols. In brief, ELISA was performed using mouse monoclonal Anti-CPD (Cat. CAC-NM-DND-001, Clone TDM-2, CosmoBio, Inc., Carlsbad, CA, USA). Flat-bottom, 96-well plates (Cat. 2801, Thermo Scientific, Waltham, MA, USA) were coated overnight with 50 µL of protamine sulphate (0.005–0.05%, Cat. P3369, Sigma, St. Lois, MO, USA) in distilled water. After washing twice with water, heat-denatured DNA was plated in triplicates from each sample, into the protamine sulphate coated plate wells (50–100 ng/well in 50 µL PBS) and incubated overnight at 37 °C. The plates were washed 5 times with 200 µL of PBST (PBS containing 0.05% Tween-20 Cat. P7949, Sigma), and blocked with 2–4% FBS in PBST (blocking buffer) for 1 h at room temperature (RT). The plates were incubated with 100 µL of a 1:1000 dilution of anti-CPD antibody in blocking buffer, and incubated for 30 min at 37 °C, which was followed by 5 washes in PBST. Next, the plates were incubated with 100 µL of a 1:2000 dilution of Biotin-F(ab’)2 fragment of anti-mouse IgG(H+L) (Cat. B-2763, Life Technologies) in blocking buffer for 30 min at 37 °C. Detection was conducted using 100 µL of a 1:10,000 dilution of Streptavidin HRP (Cat. 434323, Life Technologies) in 2% FBS for 30 min at 37 °C, which was followed by 5 washes. The plates were washed once with citrate phosphate buffer (24.3 mM citric acid monohydrate, J.T. Baker Cat. 0110-01- and 51.4-mM sodium phosphate dibasic, Sigma Cat. S7907, pH 5.0). The o-phenylene diamine dihydrochloride (Cat. P8287-50TAB, Sigma) was used as a HRP substrate at 400 µg/mL in citrate phosphate buffer for 5–10 min. A measure of 50 µL of 2M H2SO4 was used to stop the reaction as soon as the color developed (5–10 min incubation in substrate), and OD was measured at 490 nm using a Synergy-2 multimode microplate reader (BioTek, Winooski, VT, USA).

[2] = tested on: incident CPDs (iCPDs) in albino C57BL/6 melanocytes (Mel-c); experiment: iCPD assessment by DNA ELISA after ssUV, Mel-c; format: cell-based, mouse; settings: various doses up to 1 mg/mL, 24 h, Figure 4B
Excerpt: (§2) For UV exposures, we used a “SOL-UV6 ultraviolet solar simulator” from Newport irradiators. It is equipped with a Xenon arc lamp where the output is varied using the integrated variable attenuator aperture, which provides the ability to vary the output from 10% to 100% of the maximum available solar constants. The output spectrum is flat from 320 nm to 400 nm and no values are below 300 nm. This is abbreviated as “ssUV” for “solar-simulated UV” throughout the text. Various cell types seeded at ~50% confluency, were treated with the AZ and analogs at concentrations mentioned in the data figures for 24–h. Cells at ~80–90% confluency (untreated controls), were washed twice with PBS and exposed to 18 kJ/m^2 of ssUV in minimal amount of PBS (ex. 2 mL PBS in a 60 mm cell culture dish) without any dish lid in place. […] The ssUV apparatus was monitored almost daily using UV meters for any emissions below 300 nm. The dose was decided based upon the 80–90% cell survival post UV exposure. After exposure, one time point was collected immediately to assess iCPDs, whereas more dishes were incubated in cell culture medium, inside the cell culture incubator, for various time points to be collected post UV to assess dCPDs. For dCPD induction, it is important that the cell culture incubator is not opened for at least 30 min (the first time point post UV) to avoid possible interference from the CO2/O2 ratio, which will be altered upon opening the incubator doors. Cells were collected by scraping and washed once with PBS, which was followed by DNA isolation using a Quick DNA miniprep Kit (Cat. D3024, Zymo Research, Irvine, CA, USA). CPDs were assessed using our previously established DNA ELISA protocols. In brief, ELISA was performed using mouse monoclonal Anti-CPD (Cat. CAC-NM-DND-001, Clone TDM-2, CosmoBio, Inc., Carlsbad, CA, USA). […] A measure of 50 µL of 2M H2SO4 was used to stop the reaction as soon as the color developed (5–10 min incubation in substrate), and OD was measured at 490 nm using a Synergy-2 multimode microplate reader (BioTek, Winooski, VT, USA).

[3] = tested on: incident CPDs (iCPDs) in HaCaT cells; experiment: iCPD assessment by DNA ELISA after ssUV, HaCaT; format: cell-based, human; settings: various doses, Supplementary Figure S2A
Excerpt: as §2

[4] = tested on: incident CPDs (iCPDs) in NBHF cells; experiment: iCPD assessment by DNA ELISA after ssUV, NBHF; format: cell-based, human
Excerpt: as §1

[5] = tested on: delayed (dark) CPDs (dCPDs) in Mel-a cells; experiment: dCPD assessment by DNA ELISA post ssUV, Mel-a; format: cell-based, mouse
Excerpt: as §2

melanin in Mel-a cells = experiment: Melanin amount in melanocytes cultured in varied tyrosine; format: cell-based; settings: 50 µg/mL
Experimental: The amino acid tyrosine is essential for melanin synthesis, and it is added to the OptiMem medium at a proprietary concentration by ThermoFisher. Assuming this concentration to be “100% tyrosine”, we purchased the “custom-prepared, tyrosine-free” medium from ThermoFisher. This medium lacked tyrosine or its precursors, which include L-tyrosine, L-tyrosine-2Na-2H2O, L-tyrosine-Di-sodium salt, Hypoxanthine, and Sodium Hypoxanthine. Mel-a (pigmented mouse melanocyte) cells were cultured in regular cell culture medium containing 100% tyrosine, and in medium containing 20%, 4%, or 0% of the total tyrosine amount. This was achieved by diluting the regular OptiMem with the one containing no tyrosine (tyrosine-free, 0% tyrosine). […] Since the cells cultured in 0%-tyrosine medium lost their pigment over time (Figure 5) and the cell pellets were almost white or opaque in color, we assumed that the minimal amount of tyrosine from the horse serum used in the cell culture medium was not sufficient for melanin synthesis. To estimate the amount of melanin, 3 × 10^6–5 × 10^6 cells were lysed in 1M sodium hydroxide (NaOH) by heating them at 100 °C for 1–2 h, which was followed by a 10-min spin at 14,000 rpm at room temperature to remove any cell debris. Absorbance of the supernatant was recorded using the supernatant in a 96-well plate in triplicates from each sample, at 460–490 nm. Synthetic melanin (Cat. M0418, Sigma) was dissolved in methanol and used as a positive control to generate standard curves to estimate the melanin amount in cell lysates. The number of cells in each pellet was used as a normalization factor for each experimental condition. In a complementary experiment, cells were first bleached out of melanin completely by culturing them in tyrosine-free medium, followed by 100/20/4/0% tyrosine (not shown) treatment. This seemed to be cytotoxic, comparatively more so in 100% tyrosine, probably owing to the toxicity of the sudden rush of melanin derivatives and the oxidative stress generated during melanin synthesis.

[6] = tested on: Xpa, Xpc, Mitf, Xrcc1 expression in Mel-a; experiment: qPCR expression of NER pathway genes, Mel-a; format: cell-based, mouse
Experimental: (§3) Various cell types were collected 24-h post incubation with 200 µg/mL AZ and MBPD, with and without ssUV exposure. RNA was isolated using a Quick-RNA isolation kit (Cat. R1050, Zymo Research). The cDNA was prepared using a High-Capacity cDNA Reverse Transcription Kit (Cat. 4368814, ThermoFisher Scientific). The gene expression of XPA, XPC, and MITF genes was assessed using the following primers. β-actin was used as an internal control for normalizations and data analyses. F1-R1 and F2-R2 represents two primer pairs which were used in the qPCR experiments.

[7] = tested on: Xpa, Xpc, Mitf, Xrcc1 expression in Mel-c; experiment: qPCR expression of NER pathway genes, Mel-c; format: cell-based, mouse; settings: 24 h incubation
Experimental: as §3

[8] = tested on: nitrotyrosine / nitric oxide synthase (NOS) activity in Mel-a melanocytes; experiment: Immunofluorescence for nitrotyrosine (marker of NOS activity); format: cell-based, mouse; settings: 50 µg/mL, 24–36 h
Experimental: Posttranslational modification nitrotyrosine was used as a marker of nitric oxide synthase (NOS) activity. Melanocytes were cultured on collagen-coated, glass-bottom dishes (cat. P35G-1.5-14-C, MatTek, Ashland, MA, USA). After various treatments, cells were fixed with 4% formaldehyde for 10 min at RT, washed with PBS, and permeabilized with 0.5% Triton-X in PBS for 10 min. After blocking for non-specific antibody binding using 5% goat serum (Cat. 16210064, ThermoFisher Scientific) and 1% globulin free BSA (Cat. 001-000-161, Jackson ImmunoResearch, West Grove, PA, USA) in 0.1% Triton-x in PBS (blocking buffer) for 2 h at room temperature, cells were incubated with 1:1000 dilution of anti-nitrotyrosine antibody (Cat. A-21285, ThermoFisher Scientific) overnight at 4 °C. Detection was conducted using Alexa Fluor 488 Goat Anti-rabbit IgG (Cat. A-11008, Life Technologies). Imaging was performed using a ZEISS Axio Observer microscope. Approximately 5–10 images per condition, with ~70–100 cells per image, were quantitated for nitrotyrosine fluorescence using ImageJ software.

| Structure (SMILES) | iCPD inhibition across doses [1] | iCPD inhibition across doses ([1]; listed as RMKE) | iCPD inhibition across doses [2] | iCPD inhibition [3] | Inhibition of iCPD formation ([4]; 50 µg/mL, 24 h preincubation, 18 kJ/m^2 ssUV, Figure 3B) | Blockade of iCPDs ([4]; 50 µg/mL, 24 h preincubation, 18 kJ/m^2 ssUV) | inhibition at 10 µg/mL ([4]; Homo sapiens, 10 ug/mL, Figure 3C, read-out: Inhibition of iCPD formation) | iCPD inhibition across doses ([4]; various doses, Figure 3C / Supplementary Figure S2B) | Blockade of iCPDs ([1]; 50 µg/mL, 24-h preincubation, 18 kJ/m^2 ssUV) | Inhibition of delayed CPDs (dCPDs) ([5]; Mel-a, 50 µg/mL, 24–36 h preincubation, 0.5 to 4 h post ssUV, Figure 4C) | Inhibition of total CPDs (iCPDs + dCPDs) ([5]; extrapolated from 50% iCPD reduction and complete dCPD blockade, pigmented melanocytes) | Reduction in melanin (pigmentation) (melanin in Mel-a cells; 20% or less tyrosine, ~2–3 weeks) | Reduction in melanin concentration (melanin in Mel-a cells; 100% tyrosine, ~2–3 weeks) | Cell death on longer incubation (melanin in Mel-a cells; 2–3 weeks incubation) | NER pathway gene expression post UV exposure ([6]; 200 µg/ml, 24 h, then 18 kJ/m2 ssUV, various time points, relative to UV-induced upregulation) | Gene expression of Xpa, Xpc and Mitf (NER pathway) ([6]; 24 h incubation, no UV, qPCR) | Gene expression of Xrcc1 ([6]; 24 h incubation, qPCR) | Gene expression of Xrcc1 [7] | Gene expression of Xpa, Xpc and Mitf (NER pathway) ([7]; no UV) | Amount of nitrotyrosine (NOS activity marker) [8] |
| --- | --- | --- | --- | --- | --- | --- | --- | --- | --- | --- | --- | --- | --- | --- | --- | --- | --- | --- | --- | --- |
| COc1ccc(CCC(C)=O)cc1 [RKME, 4-(4-Methoxyphenyl)-butan-2-one, reference compound] | did not show any impact | completely abrogated the ability of the molecule to prevent CPD formation | did not show any impact | did not show any effect | – | – | – | – | – | – | – | – | – | – | – | – | – | – | – | – |
| COc1cc(CC(C(C)=O)C(C)=O)cc(OC)c1OC [TMBPD, 3-(3,4,5-trimethoxy-benzyl)-pentane-2,4-dione] | – | – | – | – | inhibited iCPD formation to varying extents | – | – | – | – | – | – | – | – | – | – | – | – | – | – | – |
| COc1ccc(CC(C(C)=O)C(C)=O)cc1 [MBPD, 3-(4-Methoxy-benzyl)-pentane-2,4-dione] | blocked iCPD generation in a dose-dependent manner | – | no significant impact | did not show any effect | – | ~ 50% | 30 to 40% | dose-dependent manner | ~50% | abrogated the delayed CPDs completely | ~ 80% and 70–80% | > 50% | ~ 25% | 10–15% | elevated slightly | upregulated | remained unaffected | remained unaffected | upregulated | reduced the amount of nitrotyrosine |
